Measured values from patent publication US8481734B2, “Pyrazine derivatives and uses thereof, including in medical imaging and visualization applications” (Medibeacon Development LLC, priority 2008, dated 2013).

Columns and labels:
[1] = Clearance curve of compound 18 in rats, monitored by fluorescence (RFUs) over time (FIG. 2); type: in vivo; conditions: Sprague-Dawley rats, i.v. 1 ml of 2 mmol solution in PBS, approx. 6 μmol/kg, four rats, fluorescence (RFU)
Description: Four Sprague-Dawley rats were used to obtain the experimental results depicted in FIG. 2, with each of the four lines of the graph representing data obtained from an individual rat. The rats were injected intravenously with 1 ml of a 2 mmol solution of compound 18 in phosphate-buffered saline CBS), giving a final concentration of compound 18 in each animal of approximately 6 μmol/kg. The presence of compound 18 in each of the animals was monitored over time and measured in Relative Fluorescence Units (RFUs). The clearance curve in FIG. 2 provides RFUs over time for each of the four rats. […] The clearance rate then began to level, with complete clearance of compound 18 occurring at approximately 6000 minutes.

[2] = Excitation and emission wavelengths; type: physicochemical
Text: Compound 18, above, is a longer wavelength compound (excitation ˜500 nm, emission 600 nm orange). To achieve the red shift in both excitation and emission wavelengths, electron donation into the ring was increased by alkyl substitution on the pyrazine ring nitrogens. The synthetic strategy for these longer wavelength analogues involves functionalizing the carboxyls first through amide chemistry described above followed by reductive amination of the pyrazine amino groups. Thus the synthesis of compound 18, above, is presented below. MP-3064 was coupled with Boc-ethylenediamine using the EDC method to afford MP-3183. This material was then converted to MP-3216 by reductive amination using Boc-2-aminoacetaldehyde and sodium triacetoxyborohydride. MP-3216 was purified by flash chromatography and deprotected with TFA to afford the corresponding tetramine salt. This material was then acylated with NHS-m-dPEG12 and purified by HPLC to afford compound 18: […]

[3] = Comparison of clearance rates with an iothalamate reference standard (FIG. 3); type: in vivo, Spraque-Dawley rats; conditions: Sprague-Dawley rats; iothalamate five rats, compound 18 six rats; FIG. 3 in milliliters per minute
Description: FIG. 3 provides a bar graph comparison of the clearance rates of an iothalamate reference standard and compound 18. Spraque-Dawley rats were again used as animal models for studying the clearance rates. Iothalamate clearance rates were measured in five rats, whereas clearance rates for compound 18 were measured in six rats. The clearance rates are expressed in FIG. 3 in terms of milliliters per minute.

Row | time of complete clearance [1] | excitation wavelength [2] [nm] | emission wavelength ([2]; orange) [nm] | clearance rate, compound 18 compared with iothalamate [3] | Compound
1 | approximately 6000 minutes | ~500 | 600 | virtually the same | COCCOCCOCCOCCOCCOCCOCCOCCOCCOCCOCCOCCC(=O)NCCNC(=O)c1nc(NCCNC(=O)CCOCCOCCOCCOCCOCCOCCOCCOCCOCCOCCOCCOC)c(C(=O)NCCNC(=O)CCOCCOCCOCCOCCOCCOCCOCCOCCOCCOCCOCCOC)nc1NCCNC(=O)CCOCCOCCOCCOCCOCCOCCOCCOCCOCCOCCOCCOC [compound 18, 3,6-Bis(38-oxo-2,5,8,11,14,17,20,23,26,29,32,35-dodecaoxa-39-azahentetracontan-41-ylamino)-N^2,N^5-bis(38-oxo-2,5,8,11,14,17,20,23,26,29,32,35-dodecaoxa-39-azahentetracontan-41-yl)pyrazine-2,5-dicarboxamide]
2 |  |  |  | virtually the same | CNC(=O)c1c(I)c(NC(C)=O)c(I)c(C(=O)O)c1I [iothalamate, reference compound]
